Reference: patent publication US6756362B2, “Methods and compositions based on inhibition of cell invasion and fibrosis by anionic polymers” (priority 1991, dated 2004)

Assays:
[1] = test system: epidural fibrosis at laminectomy site, Lewis inbred rats; experiment: Epidural fibrosis after lumbar laminectomy in rats, gross evaluation; assay type: in vivo, rat; parameters: TOTAL SCORE / TOTAL SCORE 2 WEEKS: scale not given here; conditions: for inhibition of scar formation (in words): versus buffer control; for TOTAL SCORE 2 WEEKS: Table 4, 2 weeks post-implantation; for Bone Growth / Deep Scar / Gelfoam Appearance: score 0-3 per Table 1; for Bone Growth / Deep Scar / Gelfoam Appearance / Superficial Scar: agent-soaked GELFOAM in laminectomy site; for Superficial Scar: score 1-3 per Table 1
Experimental: Epidural fibrosis was investigated after lumbar laminectomy in rats. In this model, a laminectomy was performed at the lumbar 3 and 5 vertebrae and then the test agent was applied to the laminectomy site. Subsequently, the laminectomy sites were examined for fibrosis by gross dissection or by histological analysis.
Laminectomies (described below) were performed at lumbar vertebrae L3 and L5 to provide auto-controls within each animal. Segments of GELFOAM® (Upjohn) soaked with experimental or control solutions were inserted into the laminectomy site. The soared GELFOAM® fragments were prepared and coded 24 hours beforehand. The GELFOAM® segments were soaked in solutions of dextran sulfate in calcium/magnesium-free phosphate buffered saline (CMF-PBS), dextran in CMF-PBS, or CMF-PBS alone. In some laminectomy sites, the GELFOAM® fragments were omitted, in order to serve as sham operations. Subsequently, the evaluation by gross dissection was done without knowledge of which solutions had been placed in which laminectomy site. Thus, the experiments were double-blind.
Lewis inbred rats were anesthetized with 4% chloral hydrate (34 mg/100 g body weight). The dorsal skin was incised and the paraspinal muscles were separated from the spinous processes of lumbar vertebrae L2 through L6. The spinous processes of L3 and L5 were removed with a rongeurs; then the vertebral lamina was removed with a micro-rongeurs creating a rectangular laminectomy defect 4×2 mm in size. After bleeding was stopped, a GELFOAM® segment was placed into the laminectomy site according to a randomized protocol. The overlying paraspinal muscles were closed over the site by suturing the superficial fascia together with resorbable 6-0 PDS II (Ethicon). The skin incision was closed with wound clips.
The animals were kept for two weeks prior to gross evaluation. At that time, the rats were anesthetized with 4% chloral hydrate and the wound was reopened by incising, the skin and separating the paraspinal muscles. The quality and quantity of scar tissue above the laminectomy site, the appearance of the GELFOAM® and the extent of new bone growth was evaluated by visual and tactile observation during sharp dissection. After the gross evaluation was complete, the rats were euthanized by anesthesia overdose.
All gross evaluations were made prior to breaking the treatment code, but the observations have been tabulated and presented below according to treatment group.

[2] = test system: PC12 cells; experiment: PC12 neurite outgrowth assay; assay type: cell-based; conditions: NGF-primed PC12 cells; scored 2 days later
Experimental: (§1) Cell lines. Murine 3T3 fibroblast (NIH), rat C6 glioma (Paganetti et al., 1988, J. Cell Biol. 107:2281) and MCG-28 young immortalized mouse astrocyte (a murine neonatal astrocyte line immortalized with SV-40) were grown in medium composed of Dulbecco's modified Eagle medium (DMEM), 10% fetal calf serum (Gibco Laboratories), and penicillin G/streptomycin (100 units/ml, 100 μg/ml respectively, Gibco Laboratories). For the stripe assay, confluent plates were disaggregated with 0.05% trypsin, 0.53 mM EDTA (Gibco Laboratories) and seeded at 200,000 cells/ml (3 ml/plate). For the cell adhesion assays, confluent cultures were disaggregated with 0.03% EDTA and plated in a 96-well microtiter plate at 20,000-100,000 cells per well. PC12 cells, a pheochromocytoma cell line (Green L. A. & Tischler A. S., 1976, Proc. Natl. Acad. Sci. U.S.A. 73:2424), were grown in medium containing Roswell Park Memorial Institute (RPMI) medium 1640 (Gibco Laboratories), 10% horse serum, 5% fetal calf serum (FCS), and penicillin G/streptomycin (100 units/ml, 100 μg/ml respectively, Gibco Laboratories). The cells were disaggregated with 0.03% EDTA and plated in a 96-well microtiter plate at 3,000 cells per well.
PC12 cells were primed with 20 ng/ml NGF for 8 days, collected with 0.03% EDTA in PBS and plated in precoated 96-well microtiter plates at 3,000 cells/well. The microtiter plates were precoated with poly-L-lysine and blocked with adhesion medium (1% BSA in RPMI) for 20 min prior to addition of cells. The cells were grown in adhesion medium supplemented with 20 ng/ml NGF. The cells were allowed to attach for 2 hr prior to the addition of the test compounds (Akeson and Warren, 1986, Exp. Cell Res. 162:347-362).
PC-12 cells primed with NGF were plated in 96-well plates. Test solutions were added to the wells and the cells were scored 2 days later as (+) if neurites of at least two cell bodies diameter in length were present on the majority of the cells, and (−) if no or only short processes were present. […] The compounds tested included GAGs (heparin, dermatan sulfate, chondroitin sulfate A, keratan sulfate and hyaluronic acid), sulfated carbohydrate polymers (dextran sulfate and pentosan polysulfate), and another polyanionic polymer (e.g., alginic acid).

[3] = test system: 3T3 cells; experiment: Colorimetric cell adhesion assay, 3T3; assay type: cell-based, mouse; conditions: 3T3 cells on PLL; 4 hr incubation; FIG. 7
Experimental: as §1
Microtiter plates were precoated with poly-L-lysine and blocked with 1% BSA in DMEM for 20 min prior to addition of cells. The cells were plated on the precoated 96-well plates and test compounds were added to the culture medium. Following 4-24 hr incubation at 36° C., 5% C02, in a humidified incubator, the tetrazolium salt MTT (3-(4,5-dimethylthazol-2-yl)-2,5-diphenyl tetrazolium bromide) was added. The cultures were incubated for 2 hr to allow mitochondrial succinate dehydrogenase, found in viable cells, to […] the MTT to its formazan blue reaction product. The media was aspirated and the wells were rinsed to remove all detached cells. The formazan blue reaction product in attached cells was solubilized with 0.08 N HCl in isopropanol, and the plates were read in a microtiter plate reader (Dynatech MR4000) at 570 nm with a 630 nm reference filter. The resulting optical density readings are directly related to the number of viable cells in the well (Mosmann, T., 1983, J. Immunol. Methods 65:55-63). The samples were run in 3-6 replicates per point and the SD was less than 5%.
The adhesion of fibroblasts to PLL-coated microtiter plates in the presence of test compounds in the culture medium was evaluated using an MTT assay as described in Section 8.1.5., supra, and the number of attached cells was expressed as percent of control. The effect of 4 hr incubation in the presence of heparin, pentosan polysulfate, dextran sulfate, and dextran on adhesion of rat meningeal fibroplasts (RMF) and 3T3 cells to PLL is shown in FIG. 7.

[4] = Table 2, sum of four criteria, lower = greater inhibition of scar formation, two weeks

hemorrhage and hematoma formation at the laminectomy site ([1]; rats, applied at laminectomy site) | hemorrhage and hematoma formation at the laminectomy site ([1]; rat, in vivo) | Substance | inhibition of scar formation (in words) ([1]; 20 mg/ml) | TOTAL SCORE [1, 4] | TOTAL SCORE ([1]; Table 3 dose response, 0.2 mg/ml) | TOTAL SCORE ([1]; Table 3 dose response, 2 mg/ml) | TOTAL SCORE ([1]; Table 3 dose response, 20 mg/ml) | TOTAL SCORE 2 WEEKS ([1]; 20 mg/ml) | TOTAL SCORE ([1]; Table 5, agent 20 mg/ml) | Bone Growth ([1]; two weeks) | Deep Scar ([1]; two weeks) | Gelfoam Appearance ([1]; two weeks) | Superficial Scar ([1]; two weeks) | IC100, minimum concentration causing 100% inhibition of neurite outgrowth [2] | number of attached cells compared to untreated controls [3]
not seen |  | dextran sulfate | potent inhibition | 1.7 ± 0.9 | 7.8 ± 1.9 | 3.0 ± 2.3 | 1.3 ± 0.5 | 1.2 ± 0.5 | 1.7 ± 0.9 | 0.1 ± 0.3 | 0.3 ± 0.5 | 0.1 ± 0.3 | 1.2 ± 0.4 | 5.2e-07 g/mL | decreased
 |  | dextran [reference compound] |  | 8.8 ± 2.4 |  |  |  | 9.5 ± 2.4 | 8.8 ± 2.4 | 1.6 ± 0.9 | 2.3 ± 0.9 | 2.2 ± 0.8 | 2.7 ± 0.5 | >0.001 g/mL | slight increase
 | caused hemorrhage and hematoma formation | Heparin | marginal improvement |  |  |  |  |  | 7.3 ± 2.5 |  |  |  |  | 2.6e-07 g/mL | decreased
